The source of these data is patent US20110166078A1, “OLIGOSACCHARIDE COMPOUNDS FOR USE IN MOBILISING STEM CELLS” (ENDOTIS PHARMA, priority 2008, published 2011).

Assay [1] deals with FGF-2-induced NHDF (Normal Human Dermal Fibroblast) cell proliferation. Briefly: FGF-2-induced NHDF proliferation assay. Format: cell-based. Conditions: compound 0.1 to 30 μM. As to the method: (§1) The activities of the compounds of the present invention were tested using a proliferation assay, such as the one described by N. Ali et al., J Pharmacol Sci, 2005, 98, 130-141. A defined number of cells is seeded in each well of a culture plate. In order to stimulate cell proliferation, a growth factor is added in some wells, while others remain unstimulated (basal proliferation conditions). To monitor the effects of substances of interest (oligosaccharides compounds according to the present invention) on basal and growth factor-induced cell proliferation, substances of interest are added at different concentrations (i.e. 0.1, 0.3, 1, 3, 10 or 30 μM) in presence or absence of the growth factor, respectively. After an incubation period of 24 hours, the total number of cells is estimated in all samples (generally through an indirect method, such as incorporation of radioactivity into the newly synthesised DNA or colorimetric assays based on cellular enzyme activities or metabolite production). The total number of cells for the control sample in which no substance of interest nor growth factor have been added is set to 1. The total number of cells in all the other samples is compared to this value in order to obtain the relative proliferation index.
Typically, cells are seeded in 48 or 96-well plates. After 2 h (i.e. the time required for cells to adhere to the support) the normal culture media is replaced by a minimal essential culture media in which cells are grown for 24 h (starvation period). This step is used to reduce cell growth (cell metabolism is slowed down in order to better visualise the growth factor stimulation effect) before adding an angiogenic protein, such as a growth factor i.e. FGF-2 or PDGF-β. No growth factor is added in basal proliferation conditions (independently of the presence or absence of the oligosaccharide of the present invention). […]
(§2) Following addition of the angiogenic protein (growth factor) over a 24 h stimulation period, a commercial reagent containing a substrate for a cellular enzyme is added and incubated for couple of hours. The degradation of the substrate by the enzyme leads to the production of a coloured product which is titrated by absorbance measurement. […]
In the following experiments the effects of compounds 240 and 241 (concentrations from 0.1 to 30 μM) were evaluated on FGF-2-induced NHDF (Normal Human Dermal Fibroblast) cell proliferation. […]

For assay [2], the system named is PDGF-β-induced NHDF proliferation. The experiment in a line: PDGF-β-induced NHDF proliferation assay. The class given is cell-based, human. Conditions: PDGF-β 10 ng/ml; FIGS. 8-12. Here is the method: as §1
Typically, cells are seeded in 48 or 96-well plates. After 2 h (i.e. the time required for cells to adhere to the support) the normal culture media is replaced by a minimal essential culture media in which cells are grown for 24 h (starvation period). This step is used to reduce cell growth (cell metabolism is slowed down in order to better visualise the growth factor stimulation effect) before adding an angiogenic protein, such as a growth factor i.e. FGF-2 or PDGF-β. No growth factor is added in basal proliferation conditions (independently of the presence or absence of the oligosaccharide of the present invention). To evaluate the inhibition of the oligosaccharide compounds according to the present invention on cell proliferation, the angiogenic protein (growth factor) is added at a fixed concentration (from 5 ng/ml to 10 ng/ml) with increasing amounts of oligosaccharide compounds (0.1, 0.3, 1, 3, 10 or 30 μM), which allows the IC50 value to be estimated (i.e. the oligosaccharide concentration at which the stimulatory effect of the growth factor is inhibited by 50%).
as §2

As for `C#CCCCOC1OC(COS(=O)(=O)[O-])C(OC2OC(C(=O)[O-])C(OC3OC(COS(=O)(=O)[O-])C(OC4OC(C(=O)[O-])C(OC5OC(COS(=O)(=O)[O-])C(OC6OC(C(=O)[O-])C(OC7OC(COS(=O)(=O)[O-])C(OC8OC(C(=O)[O-])C(OC9OC(COS(=O)(=O)[O-])C(OC%10OC(C(=O)[O-])C(OCc%11ccccc%11)C(OCc%11ccccc%11)C%10OS(=O)(=O)[O-])C(OCc%10ccccc%10)C9NS(=O)(=O)[O-])C(OCc9ccccc9)C8OS(=O)(=O)[O-])C(OCc8ccccc8)C7NS(=O)(=O)[O-])C(OCc7ccccc7)C6OS(=O)(=O)[O-])C(OCc6ccccc6)C5NS(=O)(=O)[O-])C(OCc5ccccc5)C4OS(=O)(=O)[O-])C(OCc4ccccc4)C3NS(=O)(=O)[O-])C(OCc3ccccc3)C2OS(=O)(=O)[O-])C(OCc2ccccc2)C1NS(=O)(=O)[O-].[Na+].[Na+].[Na+].[Na+].[Na+].[Na+].[Na+].[Na+].[Na+].[Na+].[Na+].[Na+].[Na+].[Na+].[Na+].[Na+].[Na+].[Na+].[Na+].[Na+]` (stereo not shown) [Compound 241], the “inhibition of FGF-2-induced fibroblast proliferation” value in assay [1] (FGF-2 5 ng/ml, FIGS. 6-7) is given as “inhibit FGF-2-induced fibroblast proliferation (starting in the micromolar range)”. For the same compound, the “basal NHDF proliferation” value in assay [1] (control conditions, no growth factor) is “did not seem to be affected”. The “inhibition of PDGF-β-induced NHDF proliferation” value in assay [2] is given as “inhibit PDGF-β proliferation (starting in the micromolar range)”.

As for `C#CCCCOC1OC(COS(=O)(=O)[O-])C(OC2OC(C(=O)[O-])C(OC3OC(COS(=O)(=O)[O-])C(OC4OC(C(=O)[O-])C(OCc5ccccc5)C(OCc5ccccc5)C4OS(=O)(=O)[O-])C(OCc4ccccc4)C3NS(=O)(=O)[O-])C(OCc3ccccc3)C2OS(=O)(=O)[O-])C(OCc2ccccc2)C1NS(=O)(=O)[O-].[Na+].[Na+].[Na+].[Na+].[Na+].[Na+].[Na+].[Na+]` (stereo not shown) [Compound 237], the “inhibition of PDGF-β-induced NHDF proliferation” value in assay [2] is “inhibit PDGF-β proliferation (starting in the micromolar range)”.
